Results on five molecules are retold here after paper PMC11613437, “Prioritization of Eleven-Nineteen-Leukemia Inhibitors as Orally Available Drug Candidates for Acute Myeloid Leukemia” (Journal of Medicinal Chemistry, 2024).

Values joined by “and” are separate entries in the source; they are usually repeats but may differ in a detail not shown here. Equal entries are not always repeated. Where two headings read alike, the source gives them in different places. A value given as a limit tells only on which side of the number the result lay.

Data set [1] has as its system MV4-11 cells. Nature of the data set: Anti-proliferation assay, MV4-11. The data set is classed as cell-based. The note with it: 1 μM, approximately 2 weeks. The method, then: (§1) Cell proliferation assays were carried out in a 96-well tissue culture plate at 2 × 10^4 cells/well for all cell lines except in 200 μL with a compound added as 1:1000 dilution of DMSO stocks in triplicate. Culture density was determined every 3–4 days using the countess automated cell counter, after which 2 × 10^4 live cells were reseeded in fresh media and compound. The cumulative cell count was achieved by back calculation.

The nature of data set [2]: Cell toxicity assay (CCK-8), Jurkat. In kind it is cell-based. As to conditions: human, Jurkat cells; 8 day treatment, n = 3; read-out: CC50 Jurkat (Cellular IC50, 8-days incubation). How it is done: (§2) Approximately 1 × 10^4 JURKAT, MOLM-13, MV4-11 and HEK293T cells in RPMI 1640 (no phenol red) (100 μL) were added to a 96-well plate and treated with DMSO or a compound at indicated concentrations for 72 h or 8 days. Cell viability was measured using the CCK-8 kit (Abcam, ab228554) according to the manufacturer’s instructions.

In data set [3] the test system is MOLM-13 cells. Nature of the data set: Anti-proliferation assay, MOLM-13. The note with it: 1 μM, approximately 2 weeks. The data set is classed as cell-based. How it is done: as §1
In the next data set the target is T1, ENL YEATS (Homo sapiens, UniProt Q03111).
T1 construct: final concentrations of 100 nM His-ENL YEATS, 100 nM Biotin-ENL-S1
T1 sequence (Q03111 1-138 limits assumed): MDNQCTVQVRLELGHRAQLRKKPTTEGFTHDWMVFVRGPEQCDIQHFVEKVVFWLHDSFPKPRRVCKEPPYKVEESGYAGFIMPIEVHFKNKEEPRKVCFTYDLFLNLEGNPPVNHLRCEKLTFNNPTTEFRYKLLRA
Nature of the data set: AlphaScreen assay with biotinylated ENL-S1 peptide. The note with it: inhibition of ENL YEATS binding to ENL-S1 peptide; mean ± SD, n = 3; read-out: Alpha IC50 (nM) for ENL YEATS. The method, then:
The AlphaScreen assay was carried out in 384-well plates. Manual assay setup was performed in a 40 μL reaction buffer (50 mM HEPES pH 7.4, 100 mM NaCl, 0.1% bovine serum albumin, and 0.05% CHAPS) with final concentrations of 100 nM His-ENL YEATS, 100 nM Biotin-ENL-S1, and 20 μg/mL of AlphaScreen donor and acceptor beads. The protein, peptide, and compounds were mixed and incubated for 1 h at room temperature and then incubated for 30 min in dark after adding the α beads. AlphaScreen-signals were detected by a multimode microplate reader (BioTeK Synergy Neo2) equipped with an Alpha-laser (PerkinElmer).
A general note: In Alpha technology, singlet oxygen from a donor bead excites a nearby acceptor bead.

Another data set deals with T2, NLuc-ENL YEATS (Homo sapiens, UniProt Q03111).
T2 construct: DNA encoding the ENL YEATS domain (aa 1–148) was cloned into an NLuc containing plasmid; expressed in transfected cells
T2 sequence (Q03111 1-148): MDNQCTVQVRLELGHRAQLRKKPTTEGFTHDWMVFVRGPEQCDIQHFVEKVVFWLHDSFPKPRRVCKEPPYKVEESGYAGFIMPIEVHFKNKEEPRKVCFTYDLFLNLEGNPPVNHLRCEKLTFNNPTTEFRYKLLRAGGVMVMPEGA
The data set is described as follows: ENL-NanoBRET inhibitor competitive assay. In kind it is cell-based. The note with it: HEK293T cells stably expressing NLuc-ENL YEATS, 1 μM Tracer 2, 2 h; mean ± SD, n = 3. The method, then:
(§3) Approximately 1.8 × 10^4 HEK293T cells (100 μL) stably expressing NLuc-ENL YEATS were seeded into a white nonbinding 96-well assay plate and incubated overnight at 37 °C in a humidified 5% CO2 atmosphere. After removal of the medium, the cells were added with a tracer (with or without excess of unlabeled compound) in the Opti-MEM with 0.1% DMSO. After incubation at 37 °C for 2 h the assay plate was equilibrated at room temperature for 15 min. For BRET detection, the NanoGlo Substrate and the extracellular NanoLuc inhibitor (Promega, N2160) were diluted with Opti-MEM as described in protocol to afford detection solution. 50 μL of the detection solution was added per well and the plate was incubated for 3 min at room temperature. The donor emission was measured at 450 nm and the acceptor emission at 610 nm using a BioTek SYNERGY neo2 multimode reader. The BRET ratio was calculated according to the following formula: BRET ratio = [(acceptorsample/donorsample) – (acceptorno-tracer control/donorno-tracer control)] × 1000.
Sample procedures were followed for cell seeding as described in the previously described tracer affinity assay. After removal of the medium, the cells were added with a tracer in the medium (1.1 μM, 100 μL) and varied concentrations of a test compound in 0.1% DMSO (10 μL). The plate was thoroughly mixed on an orbital shaker for 15 s at 900 rpm. Then the cells were incubated at 37 °C, 5% CO2 for 2 h for BRET ratio detection as described previously.
(In general: BRET reads energy transfer from a luciferase to a nearby fluorophore.)

Data set [4] can be described thus: Log D at pH 7.4 (chromatographic procedure). In kind it is physicochemical. As to conditions: n-octanol / aqueous buffer pH 7.4, pH 7.4. The method, then: Log D at 7.4, which is a partition coefficient between n-octanol and aqueous buffer pH 7.4 of the compounds was measured on the chromatographic procedure whose condition was developed based on a published method.[35]

The target of data set [5] is T3, ENL YEATS domain (Homo sapiens, UniProt Q03111).
T3 construct: Biotinylated-ENL YEATS was immobilized onto SSA biosensors; biotin (biotinylated)
T3 sequence (Q03111 1-138 limits assumed): T1 sequence (Q03111 1-138 limits assumed)
The data set is described as follows: Biolayer interferometry (BLI). In kind it is binding. The note with it: biotinylated ENL YEATS on SSA biosensors, 1:1 model. The method, then:
Superstreptavidin biosensors were first incubated in an assay buffer (20 mM Tris, pH 7.8, 300 mM NaCl, 0.05% Tween 20, 0.1% DMSO) for 15 min. Sensors were coated with 40–60 μg/mL of biotinylated ENL for 15 min at room temperature. Inhibitors were serially diluted across a 96-well plate in a volume of 200 μL. Association of samples to either ENL- or uncoated reference sensors was measured over 300 s and dissociation over 300 s with baseline measurements (buffer only) for 300 s. All assays were run with continuous 1000 rpm shaking. Data were analyzed using the OctetRED data analysis software with reference subtraction in which reference uncoated sensors and reference samples were subtracted. Then, global kinetic fit was performed for all sonogram curves with a 1:1 model to get KD values.
(BLI is a label-free optical method that tracks binding on a fibre tip over time.)

Data set [6] in a line: In vitro stability assay in human plasma. In kind it is in vitro ADME. As to conditions: 37 °C; for Plasma % of parent compound remaining (after 2h incubation): 5 μM, mean ± SD, n = 3. How it is done: The in vitro stability analysis of a test compound was initiated by the addition of the test compound to 90 μL of prewarmed (37 °C) human plasma with a final concentration of 5 μM. All assays were performed in a plate shaker at 37 °C and conducted in triplicate. At 0, 5, 15, 30, 60, and 120 min, 400 μL acetonitrile (with the internal standard diclofenac as 10 μg/mL) was added to deproteinize the plasma and terminate the reaction, the remaining compound was then analyzed by HPLC-MS/MS.

Data set [7] can be described thus: Cell toxicity assay (CCK-8), MOLM-13. The note with it: human, MOLM-13 cells, 8 day treatment, n = 3; read-out: CC50 MOLM-13 (Cellular IC50, 8-days incubation). The data set is classed as cell-based. The method, then: as §2
Data set [8] concerns MOLM-13 cells. The data set is described as follows: Cell toxicity assay (CCK-8), MOLM-13. In kind it is cell-based. The note with it: 8 day treatment, n = 3; read-out: CC50 MOLM-13 (Cellular IC50, 8-days incubation). How it is done:
as §2

The nature of data set [9]: In vitro metabolic stability assay in HLM. In kind it is in vitro ADME, human. As to conditions: for CLint scaled at 1 h / half-life at 1 h: human, human liver microsomes, pH 7.4, HLM 0.5 mg/mL, NADPH 1 mM, mean ± SD, n = 3; for CLint scaled at 1 h: read-out: Liver Microsome CLint, pred; for half-life at 1 h: read-out: Liver Microsome t1/2. The method, then: At 0, 5, 15, 30, 45, and 60 min, 200 μL acetonitrile (with the internal standard diclofenac as 10 μg/mL) was added to terminate the reaction, the remaining compound was analyzed by HPLC-MS/MS.

A short description of data set [10]: Cell toxicity assay (CCK-8), HEK293T. The note with it: human, HEK293T cells; 72 h (3-days) treatment, n = 3; read-out: CC50 HEK293T (Cellular IC50, 3-days incubation). The data set is classed as cell-based. How it is done:
as §2

Data set [11] concerns the target T4, NLuc-ENL YEATS fusion protein (Homo sapiens, UniProt Q03111).
T4 construct: DNA encoding the ENL YEATS domain (aa 1–148) was cloned into an NLuc containing plasmid; expressed in transfected cells
T4 sequence (Q03111 1-148): T2 sequence (Q03111 1-148)
Nature of the data set: NanoBRET apparent tracer affinity. The data set is classed as cell-based. As to conditions: HEK293T cells. The method, then: as §3

Data set [12] in a line: Cell toxicity assay (CCK-8), MV4-11. As to conditions: human, MV4-11 cells, 8 day treatment, n = 3; read-out: CC50 MV4-11 (Cellular IC50, 8-days incubation). In kind it is cell-based. The method, then: as §2
Data set [13] concerns MV4-11 cells. The data set is described as follows: Cell toxicity assay (CCK-8), MV4-11. The note with it: 8 day treatment, n = 3; read-out: CC50 MV4-11 (Cellular IC50, 8-days incubation). In kind it is cell-based. The method, then:
as §2

Data set [14] addresses T3, ENL YEATS domain. The note with it: cited from earlier work.

The IC50 is the concentration at which inhibition is half-maximal. Usually chromatographic logD stands for lipophilicity estimated from chromatographic retention. Usually Kd stands for the equilibrium constant for the complex coming apart. With `CC(C)C1CCN1Cc1cc2cnc(NC(=O)c3ccc4nncn4c3)cc2[nH]1` (stereo not shown) [SR-C-107], the “inhibition of MV4-11 cell proliferation” value in the data set with MV4-11 cells [1] was “strong inhibition of cell proliferation”. The IC50 at 8 days was above 64000 nM in [2] and below 4000 nM in data set [7]. Further, in the data set with MOLM-13 cells [3], the “inhibition of MOLM-13 cell proliferation” value was “strong inhibition of cell proliferation”. Moreover, the figures for the IC50 at ENL YEATS, at NLuc-ENL YEATS and with MOLM-13 cells [8] were 121 ± 28 nM, 1480 nM and 2570 ± 280 nM, respectively. Moreover, in data set [4], the chromatographic logD is 0.82. This molecule gave a Kd on ENL YEATS domain [5] of 565 nM. For the same molecule, the “Plasma % of parent compound remaining (after 2h incubation)” value in data set [6] is 90.77% and 90.77 ± 4.67%. Besides, the CLint scaled at 1 h in [9] was 8.69 ± 0.01 mL/min/kg. In addition, in data set [9], the half-life at 1 h is 3.37 ± 0.421 h. For the same molecule, in data set [10], the IC50 at 72 h was above 64000 nM.
Regarding `O=C(CCC1=[N+]2C(=Cc3ccc(-c4ccc[nH]4)n3[B-]2(F)F)C=C1)NCCCCSc1ccc(CNC(=O)c2ccc3nncn3c2)cc1` [Tracer 1, N-(4-((4-(3-(5,5-Difluoro-7-(1H-pyrrol-2-yl)-5H-4l4,5l4-dipyrrolo[1,2-c:2′,1′-f][1,3,2]diazaborinin-3-yl)propanamido)butyl)thio)benzyl)-[1,2,4]triazolo[4,3-a]pyridine-6-carboxamide], the “affinity profile of tracer for NLuc-ENL YEATS fusion protein” value in data set [11] (Figure S5a) is reported as “limited affinity profile”.
The term EC50 denotes the concentration giving half of the maximal effect. On to `O=C(CCC1=[N+]2C(=Cc3ccc(-c4ccc[nH]4)n3[B-]2(F)F)C=C1)NCCCC(=O)Nc1cccc(-c2cn3cc(C(=O)NC4CCC4)ccc3n2)c1` [Tracer 2, N-Cyclobutyl-2-(3-(4-(3-(5,5-difluoro-7-(1H-pyrrol-2-yl)-5H-4l4,5l4-dipyrrolo[1,2-c:2′,1′-f][1,3,2]diazaborinin-3yl)propanamido)butanamido)phenyl)imidazo[1,2-a]pyridine-6-carboxamide], for which, in data set [11] (nonspecific signal removed with 80 μM unlabeled compound 20), the EC50 amounted to 1460 nM.
As to `C[C@H]1CCCN1Cc1cc2cnc(NC(=O)c3ccc4nncn4c3)cc2[nH]1` [YR-D-120, (S)-N-(2-((2-Methylpyrrolidin-1-yl)methyl)-1H-pyrrolo[3,2-c]pyridin-6-yl)-[1,2,4]triazolo [4,3-a]pyridine-6-carboxamide], the results for the IC50 at 8 days in data set [2], in [7] and in [12] were above 64000 nM, below 4000 nM and below 4000 nM, respectively. Also, the IC50 came to 183 ± 25 nM at ENL YEATS, 2020 nM at NLuc-ENL YEATS, 3610 ± 490 nM with MOLM-13 cells [8] and 3280 ± 650 nM in the data set with MV4-11 cells [13]. The chromatographic logD in [4] came out at 0.08. This molecule returned a Kd on ENL YEATS domain [5] of 645 nM. The “degradation after 2 h incubation in human plasma” value in [6] is on record as “approximately 15%”. Also, the “Plasma % of parent compound remaining (after 2h incubation)” value in data set [6] came out at 83.10 ± 3.49%. In addition, in data set [9], the CLint scaled at 1 h came out at 4.76 mL/min/kg. Also, in data set [9], the half-life at 1 h worked out at 6.15 ± 0.582 h. Further, in [9] (in the presence of NADPH, 60 min), the “parent compound remaining after 60 min incubation in HLM” value was “over 90%”. Besides, the IC50 at 72 h in [10] was above 64000 nM.
With “H3K27cr peptide: commonly used biotinylated H3K27cr peptide for the AlphaScreen assay”, the Kd in the data set with ENL YEATS domain [14] is 34000 nM.
